Among the data in US20240109917A1 (ACTELION PHARMACEUTICALS LTD, priority 2020, published 2024) are IC50 values, retold here.

The target in experiment [1] is His6-TEV-PDGFRβ (557-1016) (Homo sapiens (Human), UniProt P09619). Kind of experiment: PDGFRβ HTRF Assay. The following applies: read-out: PDGFR HTRF IC50. The class given is biochemical. The method in brief: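 HTRF KinEASE-TK readout (665/620 nm ratio) of TK-biotin substrate phosphorylation by His-tagged PDGFRβ kinase domain. Enzyme and inhibitor preincubated 30 min, then ATP/substrate added for 3 h at room temperature before 60 min EDTA quench/detection.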
Sequence of His6-TEV-PDGFRβ (557-1016) (P09619 557-1016): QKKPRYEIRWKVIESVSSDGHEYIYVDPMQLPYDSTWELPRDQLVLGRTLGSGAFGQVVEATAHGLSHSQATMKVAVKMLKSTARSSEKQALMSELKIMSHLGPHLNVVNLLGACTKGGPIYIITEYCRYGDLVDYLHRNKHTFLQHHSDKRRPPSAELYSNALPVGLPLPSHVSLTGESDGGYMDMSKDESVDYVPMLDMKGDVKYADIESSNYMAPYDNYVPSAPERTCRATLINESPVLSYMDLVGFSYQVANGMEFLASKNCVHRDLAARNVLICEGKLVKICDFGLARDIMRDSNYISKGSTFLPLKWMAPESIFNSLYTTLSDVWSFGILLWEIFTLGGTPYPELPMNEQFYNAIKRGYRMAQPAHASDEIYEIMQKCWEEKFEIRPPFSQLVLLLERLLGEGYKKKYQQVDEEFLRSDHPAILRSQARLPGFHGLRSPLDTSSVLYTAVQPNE
For orientation: TR-FRET usually uses a lanthanide donor and a delayed reading to cut background.

Experiment [2] addresses Tb-labeled inactive PDGFRβ (Homo sapiens (Human), UniProt P09619). Kind of experiment: PDGFRβ LanthaScreen Assay. The class given is binding. As to conditions: read-out: PDGFR Lantha IC50.
Experiment [3] has as its target PDGFRβ (Rattus norvegicus (Rat), UniProt Q05030). In words: PDGFRβ Cellular Assay (PDGFRb P-Y751 HTRF in A10 cells stimulated with PDGF-BB). The class given is cell-based. The method in brief:
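Phospho-Y751 PDGFRβ was measured by HTRF in lysates of A10 rat cells. Cells received compound for 3 hours before PDGF-BB stimulation (100 ng/mL working stock).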

pIC50: −log10 of the molar value. Where two headings read alike, the source gives them in different places.

Sequence of PDGFRβ (Q05030 32-1097): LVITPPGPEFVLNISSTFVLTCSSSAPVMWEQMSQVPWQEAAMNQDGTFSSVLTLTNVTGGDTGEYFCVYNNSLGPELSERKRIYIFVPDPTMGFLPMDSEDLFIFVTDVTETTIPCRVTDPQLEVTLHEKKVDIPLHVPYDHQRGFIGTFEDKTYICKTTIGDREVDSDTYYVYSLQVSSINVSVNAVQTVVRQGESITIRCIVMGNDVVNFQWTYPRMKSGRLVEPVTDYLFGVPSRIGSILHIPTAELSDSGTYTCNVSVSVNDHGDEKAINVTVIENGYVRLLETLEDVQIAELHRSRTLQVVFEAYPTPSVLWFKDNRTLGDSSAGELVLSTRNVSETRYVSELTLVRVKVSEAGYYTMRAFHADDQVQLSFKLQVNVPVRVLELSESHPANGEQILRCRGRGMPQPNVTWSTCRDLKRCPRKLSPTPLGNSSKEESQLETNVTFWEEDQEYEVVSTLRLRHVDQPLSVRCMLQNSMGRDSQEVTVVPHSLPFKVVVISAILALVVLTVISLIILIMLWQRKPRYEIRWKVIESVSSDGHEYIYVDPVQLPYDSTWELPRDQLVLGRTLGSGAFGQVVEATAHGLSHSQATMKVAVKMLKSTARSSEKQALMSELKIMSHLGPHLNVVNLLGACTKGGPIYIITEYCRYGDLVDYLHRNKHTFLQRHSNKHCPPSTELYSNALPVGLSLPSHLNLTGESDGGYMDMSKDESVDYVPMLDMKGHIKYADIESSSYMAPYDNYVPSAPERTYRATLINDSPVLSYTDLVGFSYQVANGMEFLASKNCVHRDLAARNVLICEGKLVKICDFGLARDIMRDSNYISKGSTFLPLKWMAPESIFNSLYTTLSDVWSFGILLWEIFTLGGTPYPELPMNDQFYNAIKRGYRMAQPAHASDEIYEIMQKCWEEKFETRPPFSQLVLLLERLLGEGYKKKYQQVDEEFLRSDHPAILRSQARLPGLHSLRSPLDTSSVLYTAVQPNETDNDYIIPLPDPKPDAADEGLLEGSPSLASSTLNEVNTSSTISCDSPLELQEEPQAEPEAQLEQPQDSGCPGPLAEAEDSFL
Sequence of Tb-labeled inactive PDGFRβ (P09619 33-1106): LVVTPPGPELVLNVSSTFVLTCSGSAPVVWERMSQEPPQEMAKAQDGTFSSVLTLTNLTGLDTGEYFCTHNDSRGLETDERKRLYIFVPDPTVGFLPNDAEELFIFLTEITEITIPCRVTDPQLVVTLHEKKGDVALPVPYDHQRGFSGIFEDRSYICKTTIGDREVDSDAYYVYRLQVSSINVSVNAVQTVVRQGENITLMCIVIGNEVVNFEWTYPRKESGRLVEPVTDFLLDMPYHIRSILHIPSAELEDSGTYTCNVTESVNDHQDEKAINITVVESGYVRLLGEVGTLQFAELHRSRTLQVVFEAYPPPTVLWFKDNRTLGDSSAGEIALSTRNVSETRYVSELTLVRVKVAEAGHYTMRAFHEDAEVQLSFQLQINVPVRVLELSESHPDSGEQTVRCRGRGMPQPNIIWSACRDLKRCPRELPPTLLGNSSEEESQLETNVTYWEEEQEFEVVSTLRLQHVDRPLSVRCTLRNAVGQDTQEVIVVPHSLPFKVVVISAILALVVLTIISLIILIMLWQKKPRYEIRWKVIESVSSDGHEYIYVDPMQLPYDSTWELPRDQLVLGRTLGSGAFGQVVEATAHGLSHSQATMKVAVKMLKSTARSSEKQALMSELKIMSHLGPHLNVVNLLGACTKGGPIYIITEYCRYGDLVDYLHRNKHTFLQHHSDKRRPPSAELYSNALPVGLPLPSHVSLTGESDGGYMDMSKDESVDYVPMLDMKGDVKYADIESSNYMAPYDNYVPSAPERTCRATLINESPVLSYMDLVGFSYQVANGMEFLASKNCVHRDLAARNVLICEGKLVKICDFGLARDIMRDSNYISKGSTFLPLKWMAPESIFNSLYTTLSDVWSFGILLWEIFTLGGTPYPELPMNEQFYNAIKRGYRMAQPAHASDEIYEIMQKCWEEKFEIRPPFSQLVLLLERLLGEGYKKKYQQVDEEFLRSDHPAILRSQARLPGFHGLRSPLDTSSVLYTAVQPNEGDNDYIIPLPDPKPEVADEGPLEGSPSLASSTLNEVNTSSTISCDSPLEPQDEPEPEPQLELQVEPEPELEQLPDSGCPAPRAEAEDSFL

For the compound `Cc1ncc(NC(=O)NCCC2CCN(C)CC2)cc1NC(=O)c1cnn2cc(-c3cnn(C)c3)sc12` [Example 108, 2-(1-methyl-1H-pyrazol-4-yl)-N-(2-methyl-5-(3-(2-(1-methylpiperidin-4-yl)ethyl)ureido)pyridin-3-yl)pyrazolo[5,1-b]thiazole-7-carboxamide], the negative-log IC50 (pIC50) (commonly the IC50 on a negative log10 scale, so that one unit is a factor of ten) in experiment [1] is 7.97; in experiment [2], 6.31; in experiment [3] (read-out: PDGFR Cellular IC50), less than 5.52.

Consider `Cc1ncc(NC(=O)NCC2CCN(C(C)C)CC2)cc1NC(=O)c1cnn2cc(-c3cnn(C)c3)sc12` [Example 109, N-(5-(3-((1-isopropylpiperidin-4-yl)methyl)ureido)-2-methylpyridin-3-yl)-2-(1-methyl-1H-pyrazol-4-yl)pyrazolo[5,1-b]thiazole-7-carboxamide], for which the negative logarithm of the IC50 (pIC50) in experiment [1] was 7.41; in experiment [2] it was 5.72; in experiment [3] (read-out: PDGFR Cellular IC50), less than 5.52.

For the compound `Cc1ncc(C(=O)NCCN2CCOCC23CC3)cc1NC(=O)c1cnn2cc(-c3cnn(C)c3)sc12` [Example 110, N-(5-((2-(7-oxa-4-azaspiro[2.5]octan-4-yl)ethyl)carbamoyl)-2-methylpyridin-3-yl)-2-(1-methyl-1H-pyrazol-4-yl)pyrazolo[5,1-b]thiazole-7-carboxamide], the results for the negative-log IC50 (pIC50) in experiment [1], in experiment [2] and in experiment [3] (read-out: PDGFR Cellular IC50) were 9.22, 8.24 and 7.45, respectively.

On to `Cc1ncc(C(=O)NCCN2Cc3ncsc3C2)cc1NC(=O)c1cnn2cc(-c3cnn(C)c3)sc12` [Example 111, N-(5-((2-(4H-pyrrolo[3,4-d]thiazol-5 (6H)-yl)ethyl)carbamoyl)-2-methylpyridin-3-yl)-2-(1-methyl-1H-pyrazol-4-yl)pyrazolo[5,1-b]thiazole-7-carboxamide], for which the pIC50 in experiment [1] is 8.96; in experiment [2] it was 7.44; in experiment [3] (read-out: PDGFR Cellular IC50) it was 6.53.

Regarding `Cc1ncc(C(=O)NCCN2CC3COCC3C2)cc1NC(=O)c1cnn2cc(-c3cnn(C)c3)sc12` (stereo not drawn) [Example 112, 2-(1-methyl-1H-pyrazol-4-yl)-N-(2-methyl-5-((2-(tetrahydro-1H-furo[3,4-c]pyrrol-5 (3H)-yl)ethyl)carbamoyl)pyridin-3-yl)pyrazolo[5,1-b]thiazole-7-carboxamide], the values for the pIC50 in experiment [1], in experiment [2] and in experiment [3] (read-out: PDGFR Cellular IC50) were 9.30, 7.90 and 6.80, respectively.

Consider `Cc1ncc(C(=O)NCCN2CCC3(CCC3)C2)cc1NC(=O)c1cnn2cc(-c3cnn(C)c3)sc12` [Example 113, N-(5-((2-(6-azaspiro[3.4]octan-6-yl)ethyl)carbamoyl)-2-methylpyridin-3-yl)-2-(1-methyl-1H-pyrazol-4-yl)pyrazolo[5,1-b]thiazole-7-carboxamide], for which the pIC50 in experiment [1] is more than 10.00; in experiment [2] it was 8.85; in experiment [3] (read-out: PDGFR Cellular IC50) it was 7.94.

Regarding `Cc1ncc(C(=O)NCCN2CCCC23COC3)cc1NC(=O)c1cnn2cc(-c3cnn(C)c3)sc12` [Example 114, N-(5-((2-(2-oxa-5-azaspiro[3.4]octan-5-yl)ethyl)carbamoyl)-2-methylpyridin-3-yl)-2-(1-methyl-1H-pyrazol-4-yl)pyrazolo[5,1-b]thiazole-7-carboxamide], the negative-log IC50 (pIC50) in experiment [1] is 9.40; in experiment [2], 8.34; in experiment [3] (read-out: PDGFR Cellular IC50) it was 7.56.

On to `COCCN(CCNC(=O)c1cnc(C)c(NC(=O)c2cnn3cc(-c4cnn(C)c4)sc23)c1)C1CCC1` [Example 115, N-(5-((2-(cyclobutyl(2-methoxyethyl)amino)ethyl)carbamoyl)-2-methylpyridin-3-yl)-2-(1-methyl-1H-pyrazol-4-yl)pyrazolo[5,1-b]thiazole-7-carboxamide], for which the values for the pIC50 in experiment [1], in experiment [2] and in experiment [3] (read-out: PDGFR Cellular IC50) were 9.40, 8.33 and 7.88, respectively.

Regarding `Cc1ncc(C(=O)NCCN2CCC3(CCOC3)C2)cc1NC(=O)c1cnn2cc(-c3cnn(C)c3)sc12` (stereo not drawn) [Example 116, N-(5-((2-(2-oxa-7-azaspiro[4.4]nonan-7-yl)ethyl)carbamoyl)-2-methylpyridin-3-yl)-2-(1-methyl-1H-pyrazol-4-yl)pyrazolo[5,1-b]thiazole-7-carboxamide], the pIC50 is 9.30 in experiment [1], 7.90 in experiment [2] and 7.13 in experiment [3] (read-out: PDGFR Cellular IC50).

For `Cc1ncc(C(=O)NCCN2CCOCC23CCC3)cc1NC(=O)c1cnn2cc(-c3cnn(C)c3)sc12` [Example 117, N-(5-((2-(8-oxa-5-azaspiro[3.5]nonan-5-yl)ethyl)carbamoyl)-2-methylpyridin-3-yl)-2-(1-methyl-1H-pyrazol-4-yl)pyrazolo[5,1-b]thiazole-7-carboxamide], the negative logarithm of the IC50 (pIC50) in experiment [1] is 9.40; in experiment [2], 8.64; in experiment [3] (read-out: PDGFR Cellular IC50), 8.25.

Consider `Cc1ncc(C(=O)NCCN2CCC3(CC3)C2)cc1NC(=O)c1cnn2cc(-c3cnn(C)c3)sc12` [Example 118, N-(5-((2-(5-azaspiro[2.4]heptan-5-yl)ethyl)carbamoyl)-2-methylpyridin-3-yl)-2-(1-methyl-1H-pyrazol-4-yl)pyrazolo[5,1-b]thiazole-7-carboxamide], for which the values for the pIC50 in experiment [1], in experiment [2] and in experiment [3] (read-out: PDGFR Cellular IC50) were 9.52, 8.15 and 7.26, respectively.

With `Cc1ncc(C(=O)NCCN2CCC(F)(F)CC2)cc1NC(=O)c1cnn2cc(-c3cnn(C)c3)sc12` [Example 119, N-(5-((2-(4,4-difluoropiperidin-1-yl)ethyl)carbamoyl)-2-methylpyridin-3-yl)-2-(1-methyl-1H-pyrazol-4-yl)pyrazolo[5,1-b]thiazole-7-carboxamide], the results for the pIC50 in experiment [1], in experiment [2] and in experiment [3] (read-out: PDGFR Cellular IC50) were 9.52, 8.70 and 8.31, respectively.

Turning to `Cc1ncc(C(=O)NCCN2CCC(F)(F)C2)cc1NC(=O)c1cnn2cc(-c3cnn(C)c3)sc12` [Example 120, N-(5-((2-(3,3-difluoropyrrolidin-1-yl)ethyl)carbamoyl)-2-methylpyridin-3-yl)-2-(1-methyl-1H-pyrazol-4-yl)pyrazolo[5,1-b]thiazole-7-carboxamide], the negative-log IC50 (pIC50) in experiment [1] was 9.40; in experiment [2], 8.35; in experiment [3] (read-out: PDGFR Cellular IC50), 8.03.

With `Cc1ncc(C(=O)NCCN2CCCOCC2)cc1NC(=O)c1cnn2cc(-c3cnn(C)c3)sc12` [Example 121, N-(5-((2-(1,4-oxazepan-4-yl)ethyl)carbamoyl)-2-methylpyridin-3-yl)-2-(1-methyl-1H-pyrazol-4-yl)pyrazolo[5,1-b]thiazole-7-carboxamide], the negative-log IC50 (pIC50) was 9.40 in experiment [1], 7.88 in experiment [2] and 7.09 in experiment [3] (read-out: PDGFR Cellular IC50).

Regarding `Cc1ncc(C(=O)NCCN2C3CCC2COC3)cc1NC(=O)c1cnn2cc(-c3cnn(C)c3)sc12` [Example 122, N-(5-((2-(3-oxa-8-azabicyclo[3.2.1]octan-8-yl)ethyl)carbamoyl)-2-methylpyridin-3-yl)-2-(1-methyl-1H-pyrazol-4-yl)pyrazolo[5,1-b]thiazole-7-carboxamide], the pIC50 is 9.52 in experiment [1], 8.55 in experiment [2] and 7.71 in experiment [3] (read-out: PDGFR Cellular IC50).

Consider `Cc1ncc(C(=O)NCCN2CCCC(F)(F)C2)cc1NC(=O)c1cnn2cc(-c3cnn(C)c3)sc12` [Example 123, N-(5-((2-(3,3-difluoropiperidin-1-yl)ethyl)carbamoyl)-2-methylpyridin-3-yl)-2-(1-methyl-1H-pyrazol-4-yl)pyrazolo[5,1-b]thiazole-7-carboxamide], for which the pIC50 in experiment [1] is 9.52; in experiment [2] it was 8.57; in experiment [3] (read-out: PDGFR Cellular IC50), 8.11.

`Cc1ncc(C(=O)NCCN2CC3(CCC3)C2)cc1NC(=O)c1cnn2cc(-c3cnn(C)c3)sc12` [Example 124, N-(5-((2-(2-azaspiro[3.3]heptan-2-yl)ethyl)carbamoyl)-2-methylpyridin-3-yl)-2-(1-methyl-1H-pyrazol-4-yl)pyrazolo[5,1-b]thiazole-7-carboxamide]: the pIC50 in experiment [1] is 9.22; in experiment [2], 7.71; in experiment [3] (read-out: PDGFR Cellular IC50), 6.87.

`Cc1ncc(C(=O)NCCN2CC(F)(F)C2)cc1NC(=O)c1cnn2cc(-c3cnn(C)c3)sc12` [Example 125, N-(5-((2-(3,3-difluoroazetidin-1-yl)ethyl)carbamoyl)-2-methylpyridin-3-yl)-2-(1-methyl-1H-pyrazol-4-yl)pyrazolo[5,1-b]thiazole-7-carboxamide]: the negative logarithm of the IC50 (pIC50) in experiment [1] was 9.52; in experiment [2] it was 8.28; in experiment [3] (read-out: PDGFR Cellular IC50) it was 7.32.

On to `Cc1ncc(C(=O)NCCN2CC(C)(C)C2)cc1NC(=O)c1cnn2cc(-c3cnn(C)c3)sc12` [Example 126, N-(5-((2-(3,3-dimethylazetidin-1-yl)ethyl)carbamoyl)-2-methylpyridin-3-yl)-2-(1-methyl-1H-pyrazol-4-yl)pyrazolo[5,1-b]thiazole-7-carboxamide], for which the pIC50 in experiment [1] is 9.52; in experiment [2], 7.99; in experiment [3] (read-out: PDGFR Cellular IC50), 7.10.

For the compound `COCCN(CCNC(=O)c1cnc(C)c(NC(=O)c2cnn3cc(-c4cnn(C)c4)sc23)c1)C(C)C` [Example 127, N-(5-((2-(isopropyl(2-methoxyethyl)amino)ethyl)carbamoyl)-2-methylpyridin-3-yl)-2-(1-methyl-1H-pyrazol-4-yl)pyrazolo[5,1-b]thiazole-7-carboxamide], the values for the pIC50 in experiment [1], in experiment [2] and in experiment [3] (PDGFR Cellular IC50) were 9.22, 8.22 and 7.79, respectively.

On to `COCCN(CCNC(=O)c1cnc(C)c(NC(=O)c2cnn3cc(-c4cnn(C)c4)sc23)c1)CCOC` [Example 128, N-(5-((2-(bis(2-methoxyethyl)amino)ethyl)carbamoyl)-2-methylpyridin-3-yl)-2-(1-methyl-1H-pyrazol-4-yl)pyrazolo[5,1-b]thiazole-7-carboxamide], for which the pIC50 in experiment [1] is 9.05; in experiment [2], 7.74; in experiment [3] (read-out: PDGFR Cellular IC50), 7.33.
